These are literature values, as cited in US11944640B2, “Zinc-[gamma]-PGA compositions and methods for treating cancer” (XYLONIX PTE. LTD., priority 2016, dated 2024).

The subject of one series is rats. The note with it: 9˜14 days of dietary administration (240 ppm).
Series [1] concerns leukocyte-originating cells, including murine thymocytes, murine splenic lymphocytes, human Ramos B, and human Jurkat T cells. Particulars: nanomolar concentrations.
Series [2] concerns androgen-dependent LNCaP and androgen-independent PC3, DU145 prostate cancer cell lines. Particulars: micromolar concentrations (1-10 μM).
Series [3] relates to folate receptor (FR), FR-α and FR-β. The note with it: FR-α vs FR-β.

Consider zinc pyrithione, for which the toxicity entry in the series on rats is “acute neurological toxicity”. Also, the “mode of cell death” value in series [1] was “induced zinc-specific apoptosis”; in series [2], “elicited ATP-depletion and, eventually, ERK and PKC-dependent necrosis”.

For `CN(CC1CNc2nc(N)[nH]c(=O)c2N1C)c1ccc(C(=O)N[C@@H](CCC(=O)O)C(=O)O)cc1` (stereo partly shown) [DMTHF, N^5,N^10-dimethyl tetrahydrofolate], the “affinity for folate receptor isoforms (selectivity)” value in series [3] is on record as “higher affinity for FR-α over FR-β”.
